Measurements from US11938121B2, “Treatment of infections and biofilm formation using a cellulose synthase inhibitor” (Purdue Research Foundation, priority 2020, dated 2024).

Assays:
[1] = system: maize (Zea mays); test: Maize seedling root growth; assay type: in vivo; conditions: 20 μM
Source text: (§1) ES20 has broad spectrum inhibitory effect on the growth of both dicotyledonous and monocotyledonous plants (Huang and Zhang, Plant Signal Behav. 2020, 15, 1780039). We tested whether ES20-1 has stronger inhibitory effect on the growth of monocotyledon plants than ES20. We grew rice (Oryza sativa) and maize (Zea mays) seedlings on the same concentrations of ES20 and ES20-1 and compared their effects on growth.

[2] = system: rice (Oryza sativa); test: Rice seedling root growth; assay type: in vivo; conditions: 20 μM
Source text: as §1

[3] = target: T1, GFP-CESA6c^P595S: GFP-tagged central cytoplasmic domain of AtCESA6 (cellulose synthase, CESA6) carrying missense mutation P595S, with a His-SUMO tag (Arabidopsis thaliana, UniProt Q94JQ6, P595S); test: Microscale thermophoresis (MST) binding to purified GFP-tagged CESA6c^P595S (missense mutant)
T1 construct: We purified AtCESA6 central cytoplasmic domain carrying missense mutation P595S (CESA6c^P595S); His-SUMO; made in house; host or cells: E. coli
Source text: FIGS. 3A-3Q. […] FIG. 3A to FIG. 3G. […] FIG. 3A. Representative 5-day-old dark-grown Arabidopsis Col-0 seedlings grown on growth medium supplemented with different concentrations of ES20 or ES20-1. Scale bar: 1 cm. FIG. 3B. Quantification of hypocotyl length of 5-day-old dark-grown Arabidopsis Col-0 seedlings described in FIG. 3A. Data represent mean±SD (n=12 seedlings). FIG. 3C. Quantification of crystalline cellulose content in the hypocotyl cell walls of 7-day-old dark-grown Col-0 seedlings grown on growth medium supplemented with DMSO (0.1%), 1 μM ES20, or 1 μM ES20-1. Data represent mean±SD (n=3 biological replicates). FIG. 3D and FIG. 3E. […] FIG. 3D. Representative image of 6-day-old rice seedlings grown in sterile water supplemented with DMSO (0.1%), 20 μM ES20, or 20 μM ES20-1. Scale bar: 1 cm. FIG. 3E. Quantification of root length of rice seedlings as described in FIG. 3D. Data represent mean±SD (n=10 seedlings). FIG. 3F and FIG. 3G. […] FIG. 3F. […] Quantification of root length of maize seedlings as described in FIG. 3F. […] Quantitative analysis of the band intensity of YFP-AtCESA6 and SEC12 in ES20-1-treated samples divided by that of DMSO-treated samples in the DARTS assay described in FIG. 3H. […] Statistically significant differences in FIG. 3B were determined using one-way ANOVA followed by Tukey's multiple comparisons test. […]

Structure (SMILES): Cc1ccccc1C(=O)NNC(=S)NC(=O)c1ccccc1 [ES20-1]
- maize root growth inhibition ([1]; 6-day-old seedlings): could inhibit the root growth
- degree of maize root growth inhibition compared with ES20 ([1]; same dosage): much stronger than that of the same dosage of ES20
- rice root growth inhibition ([2]; 6-day-old seedlings): could inhibit the root growth
- degree of rice root growth inhibition compared with ES20 ([2]; same dosage): much stronger than that of the same dosage of ES20
- Kd [3]: 9.5 ± 6.3 µM
